“Also recorded” adds a separate entry of the source.
Columns and labels:
INS-1 β-cells = assay: Insulin secretion from INS-1 cells (Examples 4 and 6); type: cell-based, rat; conditions: Example 6, 6 μM peptide, KRB buffer, 60 min, vs unstimulated control cells
Method: To investigate the stimulatory effect of FOL-005 on insulin secretion, INS-1 β-cells were used in the following experiments. Cells were seeded overnight in cRPMI and then washed with PBS before pre-incubation for 60 min at 37° C. in Krebs-Ringer bicarbonate buffer (KRB), pH 7.4, supplemented with 10 mM HEPES, 0.1% bovine serum albumin. After pre-incubation, the buffer was changed and the INS-1 cells were incubated at different test conditions (0 mM, 5 mM or 20 mM glucose) and stimulated with peptide FOL-005 or FOL-015 (SEQ ID NO: 158) or left untreated during 60 min at 37° C. Immediately after incubation, an aliquot of the buffer was removed and frozen for subsequent assay of insulin with an insulin radioimmunoassay kit.
INS-1 β-cells were used to investigate the stimulatory effect of FOL-014 on insulin secretion. Cells were seeded overnight and then washed with PBS before pre-incubation for 60 min at 37° C. in Krebs-Ringer bicarbonate buffer (KRB), pH 7.4, supplemented with 10 mM HEPES, 0.1% bovine serum albumin. After pre-incubation, the buffer was changed and the INS-1 cells were incubated in new KRB buffer supplemented with 10 mM HEPES, 0.1% bovine serum albumin and stimulated with peptide FOL-014 or left untreated during 60 min at 37° C. Immediately after incubation, an aliquot of the buffer was removed and frozen for subsequent assay of insulin.

BB lyp/lyp rats = assay: Onset of type 1 diabetes in BB lyp/lyp rats; type: in vivo, rat; conditions: 100 nmol/kg subcutaneously 3 times/week from day 40, vs placebo
Method: BB lyp/lyp rats were randomized for placebo (sodium chloride, 9 mg/ml) or FOL-014 treatment 3 times/week from day 40 until onset of type 1 diabetes, defined as plasma glucose levels ≥11.1 mM. The dose of 100 nmol/kg FOL-014 peptide in saline or placebo (saline) was administered subcutaneously and the animals were terminated immediately upon exceeding critical plasma glucose levels. The difference between FOL-014 treated animals and animals receiving placebo treatment was significant both when expressed as average age for onset of type 1 diabetes (FIG. 10A) and when described as percentage of animals developing type 1 diabetes per day (FIG. 10B).

db/db mice = assay: HbA1c in db/db mice after 4 weeks of dosing; type: in vivo, mouse; conditions: 100 nmol/kg subcutaneously, 5 days per week for 4 weeks, vs PBS control
Method: To investigate the long-term effect of FOL-014 and FOL-056 in diabetic mice, db/db mice were dosed with 100 nmol/kg peptide subcutaneously, 5 days per week for 4 weeks. Control mice were injected with PBS. After 4 weeks of treatment the mice were terminated and 25 μl whole blood was immediately frozen for subsequent HbA1c analysis. (FIG. 21).

INS-1E cells = assay: Insulin secretion from INS-1E cells (Example 18); type: cell-based, rat; conditions: 100 nM peptide, high (16.7 mM) glucose buffer, 60 min, vs un-supplemented buffer
Method: To investigate the stimulatory effect of FOL-056 on insulin secretion we used INS-1E cells. The cells were seeded overnight and washed with PBS before pre-incubation for 60 min at 37° C. in Krebs-Ringer bicarbonate buffer (KRB), pH 7.4, supplemented with 10 mM HEPES, 0.1% bovine serum albumin. Following pre-incubation, the buffer was discarded and the INS-1E cells were incubated in fresh KRB buffer supplemented with 10 mM HEPES, 0.1% bovine serum albumin with or without peptide FOL-056. For comparative purposes cells treated with FOL-014 was included. Following 60 min incubation at 37.C, the buffer was removed and frozen for subsequent insulin assay.

KPLAEIDSIELSYGIK (MISC_FEATURE - peptide, FOL-014)
insulin secretion (INS-1 β-cells): secreted more insulin compared to unstimulated control cells | onset of type 1 diabetes (BB lyp/lyp rats): significantly delayed the onset of type-1 diabetes; also recorded: significant delay in the onset of diabetes | HbA1c (db/db mice): reduce the HbA1c in db/db mice as compared with the untreated control group; also recorded: significantly lower HbA1c | insulin secretion (INS-1E cells): resulted in a significant increase in insulin secretion

— patent US20240327459A1, “PEPTIDE FRAGMENTS FOR TREATMENT OF DIABETES” (Follicum AB, priority 2018, published 2024)
